Measurements from US8557833B2, “Aminopyrimidines useful as kinase inhibitors” (priority 2005, dated 2013).
Like-named read-outs stand apart in the source and are kept apart here.

What was measured:
Aurora-2 (Aurora A) = molecular target: T1, Aurora-2 (Aurora A) (Homo sapiens, UniProt O14965); assay: Aurora-2 (Aurora A) inhibition assay, coupled enzyme; type: biochemical
T1 sequence (O14965 1-403): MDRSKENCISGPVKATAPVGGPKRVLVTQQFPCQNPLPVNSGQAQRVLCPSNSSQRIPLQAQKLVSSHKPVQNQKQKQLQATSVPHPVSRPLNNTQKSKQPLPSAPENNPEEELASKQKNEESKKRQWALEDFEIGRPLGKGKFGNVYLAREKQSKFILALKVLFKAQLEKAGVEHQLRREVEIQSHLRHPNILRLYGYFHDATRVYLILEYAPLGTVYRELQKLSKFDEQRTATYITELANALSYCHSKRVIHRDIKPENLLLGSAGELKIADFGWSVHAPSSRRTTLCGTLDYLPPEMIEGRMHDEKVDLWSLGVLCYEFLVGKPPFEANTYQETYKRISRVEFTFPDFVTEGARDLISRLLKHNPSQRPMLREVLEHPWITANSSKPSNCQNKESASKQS
Method: Assays were carried out in a mixture of 100 mM Hepes (pH7.5), 10 mM MgCl2, 1 mM DTT, 25 mM NaCl, 2.5 mM phosphoenolpyruvate, 300 μM NADH, 30 μg/ml pyruvate kinase and 10 μg/ml lactate dehydrogenase. […] Assays were carried out at 30° C. and in the presence of 40 nM Aurora-2.
An assay stock buffer solution was prepared containing all of the reagents listed above, with the exception of Aurora-2 and the test compound of interest. […] The plate was preincubated for 10 minutes at 30° C. and the reaction initiated by addition of 10 μl of Aurora-2. Initial reaction rates were determined with a Molecular Devices SpectraMax Plus plate reader over a 10 minute time course. IC50 and Ki data were calculated from non-linear regression analysis using the Prism software package (GraphPad Prism version 3.0cx for Macintosh, GraphPad Software, San Diego Calif., USA).

Aurora-1 (Aurora B) = Aurora-1 (Aurora B) (Homo sapiens, UniProt Q96GD4); assay: Aurora-1 (Aurora B) inhibition assay (radiometric); type: biochemical
Sequence of Aurora-1 (Aurora B) (Q96GD4 whole entry): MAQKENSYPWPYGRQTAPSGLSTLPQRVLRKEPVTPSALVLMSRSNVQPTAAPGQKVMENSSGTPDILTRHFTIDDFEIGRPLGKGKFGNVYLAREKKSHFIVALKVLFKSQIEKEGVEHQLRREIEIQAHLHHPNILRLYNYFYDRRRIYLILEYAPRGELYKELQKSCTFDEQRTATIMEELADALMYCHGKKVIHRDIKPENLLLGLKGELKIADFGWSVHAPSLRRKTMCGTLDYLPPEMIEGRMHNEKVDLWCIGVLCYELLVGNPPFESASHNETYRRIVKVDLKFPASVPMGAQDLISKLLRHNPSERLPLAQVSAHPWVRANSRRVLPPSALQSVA
Method: An assay buffer solution was prepared which consisted of 25 mM HEPES (pH 7.5), 10 mM MgCl2, 0.1% BSA and 10% glycerol. […] To 22 μL of the Aurora-B solution, in a 96-well plate, was added 2 μl of a compound stock solution in DMSO and the mixture allowed to equilibrate for 10 minutes at 25° C. The enzyme reaction was initiated by the addition of 16 μl stock [γ-^33P]-ATP solution (˜20 nCi/μL) prepared in assay buffer, to a final assay concentration of 800 μM. The reaction was stopped after 3 hours by the addition of 16 μL 500 mM phosphoric acid and the levels of ^33P incorporation into the peptide substrate were determined by the following method.
A phosphocellulose 96-well plate (Millipore, Cat no. MAPHNOB50) was pre-treated with 100 μL of a 100 mM phosphoric acid prior to the addition of the enzyme reaction mixture (40 μL). The solution was left to soak on to the phosphocellulose membrane for 30 minutes and the plate subsequently washed four times with 200 μL of a 100 mM phosphoric acid. […] Levels of non-enzyme catalyzed background radioactivity were determined by adding 16 μL of the 500 mM phosphoric acid to control wells, containing all assay components (which acts to denature the enzyme), prior to the addition of the [γ-^33P]-ATP solution. Levels of enzyme catalyzed ^33P incorporation were calculated by subtracting mean background counts from those measured at each inhibitor concentration. […] Ki values were calculated from initial rate data by non-linear regression using the Prism software package (Prism 3.0, Graphpad Software, San Diego, Calif.).

[1] = Microsomal stability assay; type: in vitro ADME; conditions: 5 μM compound, 1 mg/mL liver microsome protein, 37° C., species not given
Method: Microsomal stability was monitored by generation of depletion-time profiles in microsomes from a range of species (male CD-1 mouse, male Sprague-Dawley rat, male Beagle dog, male Cynomolgus monkey and pooled mixed gender human). Compound spiking solutions were made up by diluting down the compound stock solution in DMSO (typically 10 mM) to give a solution in acetonitrile (0.5 mM). […].
The reaction was initiated by the addition (250 μL) of the pre-incubated RGS to the pre-incubated microsome/VRT/PB mixture (pre-incubation in both instances was for 10 minutes at 37° C.). Samples were incubated within Eppendorf vials (1.5 ml) on a heater shaker (DPC Micromix 5 (settings; form 20, amplitude 4) modified to be heated, to 37° C., by two plate heaters fixed to the deck and controlled by a Packard Manual Heater) attached to a Multiprobe II HT Ex automated liquid handler. The liquid handler was programmed (WinPREP software) to sample the microsomal incubation mixture after 0, 2, 10, 30 and 60 minutes of incubation and transfer an aliquot (100 μL) to a stop block (96-well block) containing 100 μL of chilled methanol. The % organic in the stop mixture was optimized for analysis by addition of appropriate volumes of aqueous/organic (typically 100 μl of 50:50 methanol:water).
Prior to analysis the stop block was placed on a shaker (DPC Micromix 5; 10 min, form 20, amplitude 5) to precipitate out proteins. The block was then centrifuged (Jouan GR412; 2000 rpm, 15 min, 4° C.). A sample aliquot (200 μL) was then transferred to an analysis block and the block was centrifuged again (Jouan GR412; 2000 rpm, 5 min, 4° C.) prior to being sent for analysis. Depletion profiles were determined by monitoring the disappearance of VRT by liquid chromatography-tandem mass spectrometry (LC-MS/MS). Samples were injected (20 μL; Agilent 1100 liquid chromatographic system equipped with autosampler) onto an analytical column. Mobile phase consisted of Water+0.05% (v/v) formic acid (A) and methanol+0.05% (v/v) formic acid (B).
Running a gradient method optimized for the compound of interest carried out the compound elution from analytical column. The total run time was 6 minutes with a flow rate of 0.35 mL/min. The entire column effluent entered the electrospray ionization source (positive mode) of a Micromass Quattro LC tandem mass spectrometer between 0.5 and 5.9 min of the run. The mass spectrometry was optimized for the compound of interest. All incubations were conducted in duplicate and results were expressed as % parent remaining at either 30 minutes or 60 minutes relative to 0 minutes sample.

JAK-2 = JAK-2 (Homo sapiens, UniProt O60674); assay: JAK2 inhibition assay; type: biochemical; conditions: 12 μM ATP, 15 μM poly(Glu)4Tyr
Sequence of JAK-2 (O60674 whole entry, species assumed): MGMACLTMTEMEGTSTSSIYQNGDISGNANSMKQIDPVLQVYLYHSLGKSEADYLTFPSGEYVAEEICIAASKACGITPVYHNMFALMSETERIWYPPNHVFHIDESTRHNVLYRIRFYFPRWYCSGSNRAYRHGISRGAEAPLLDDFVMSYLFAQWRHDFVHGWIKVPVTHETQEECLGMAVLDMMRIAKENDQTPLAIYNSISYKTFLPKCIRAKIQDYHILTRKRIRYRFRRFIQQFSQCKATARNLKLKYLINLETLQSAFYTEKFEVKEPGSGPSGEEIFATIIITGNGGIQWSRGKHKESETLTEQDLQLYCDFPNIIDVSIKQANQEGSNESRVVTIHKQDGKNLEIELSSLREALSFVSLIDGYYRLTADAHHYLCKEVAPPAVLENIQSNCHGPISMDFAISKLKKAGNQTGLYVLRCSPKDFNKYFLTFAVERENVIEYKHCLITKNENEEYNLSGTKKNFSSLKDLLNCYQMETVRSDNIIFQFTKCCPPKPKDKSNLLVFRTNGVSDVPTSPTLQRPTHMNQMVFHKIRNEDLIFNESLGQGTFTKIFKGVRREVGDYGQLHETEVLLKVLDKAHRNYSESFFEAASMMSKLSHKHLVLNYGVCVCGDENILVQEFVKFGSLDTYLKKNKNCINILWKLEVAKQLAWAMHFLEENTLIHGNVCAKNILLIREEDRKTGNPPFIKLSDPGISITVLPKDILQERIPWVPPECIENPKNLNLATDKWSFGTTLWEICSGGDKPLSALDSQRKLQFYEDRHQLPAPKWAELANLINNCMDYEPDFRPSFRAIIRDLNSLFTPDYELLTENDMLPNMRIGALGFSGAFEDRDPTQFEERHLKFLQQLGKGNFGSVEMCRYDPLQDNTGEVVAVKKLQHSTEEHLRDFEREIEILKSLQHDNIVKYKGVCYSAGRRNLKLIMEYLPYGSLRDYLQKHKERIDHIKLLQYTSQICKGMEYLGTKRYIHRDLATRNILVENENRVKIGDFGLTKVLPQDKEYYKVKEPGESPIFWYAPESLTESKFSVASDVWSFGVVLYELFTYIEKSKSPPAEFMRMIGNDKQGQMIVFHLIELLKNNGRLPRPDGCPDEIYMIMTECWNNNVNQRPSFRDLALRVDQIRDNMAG

[2] = 400 μM ATP, 570 μM Kemptide, 30° C., 40 nM Aurora-2, read-out: Aurora A Ki
[3] = 800 μM ATP, Kemptide, 25° C., read-out: Aurora B Ki

For `O=C(Nc1ccc(Sc2nc(Nc3cc(C4CC4)[nH]n3)cc(N3CCC3)n2)cc1)c1ccccc1Cl` [Compound I-17], the Ki (Aurora-2 (Aurora A); [2]) was 0.65 nM, the Ki (Aurora-1 (Aurora B); [3]) was 6 nM and the “Microsomal Stability (% remaining after 30 min.)” value [1] was 93%. For the same compound, the Ki (JAK-2) was 410 nM.
For `Cc1cc(Nc2cc(N3CCC3)nc(Sc3ccc(NC(=O)c4ccccc4OC(F)(F)F)cc3)n2)[nH]n1` [Compound I-8], the Ki (Aurora-2 (Aurora A)) was 0.67 nM, the Ki (Aurora-1 (Aurora B); [3]) was 11 nM and the “Microsomal Stability (% remaining after 30 min.)” value [1] was 100%. The Ki (JAK-2) was 1700 nM.
With `COc1ccccc1C(=O)Nc1ccc(Sc2nc(Nc3cc(C)[nH]n3)cc(N3CCC3)n2)cc1` [Compound I-6] the Ki (Aurora-2 (Aurora A)) was 3 nM, the Ki (Aurora-1 (Aurora B); [3]) was 26 nM and the “Microsomal Stability (% remaining after 30 min.)” value [1] was 80%. For the same compound, the Ki (JAK-2) was 1100 nM.
With `CCc1cccc(C(=O)Nc2ccc(Sc3nc(Nc4cc(C)[nH]n4)cc(N4CCC4)n3)cc2)c1Cl` [Compound I-22] the Ki (Aurora-2 (Aurora A)) was under 0.35 nM, the Ki (Aurora-1 (Aurora B); [3]) was under 6 nM and the “Microsomal Stability (% remaining after 30 min.)” value [1] was 1%. For the same compound, the “Microsomal Stability (% remaining after 60 min.)” value [1] was 46% and the Ki (JAK-2) was 500 nM.
For `Cc1cc(Nc2cc(N3CCC3)nc(Sc3ccc(NC(=O)c4ccccc4C(F)(F)F)cc3)n2)[nH]n1` [Compound I-14], the Ki (Aurora-2 (Aurora A); [2]) was 0.38 nM, the Ki (Aurora-1 (Aurora B); [3]) was 4.5 nM and the “Microsomal Stability (% remaining after 30 min.)” value [1] was 103%. The “Microsomal Stability (% remaining after 60 min.)” value [1] was 78% and the Ki (JAK-2) was 720 nM.
With `Cc1cc(Nc2cc(N3CCC3)nc(Sc3ccc(NC(=O)c4cccc(C)c4Cl)cc3)n2)n[nH]1` [Compound I-20] the Ki (Aurora-2 (Aurora A)) was 0.77 nM, the Ki (Aurora-1 (Aurora B); [3]) was 6 nM and the “Microsomal Stability (% remaining after 30 min.)” value [1] was 53%. The Ki (JAK-2) was 290 nM.
For `Cc1cccc(C(=O)Nc2ccc(Sc3nc(Nc4cc(C)[nH]n4)cc(N4CCC4)n3)cc2)c1` [Compound I-4], the Ki (Aurora-2 (Aurora A)) was 2.5 nM, the Ki (Aurora-1 (Aurora B)) was 24 nM and the “Microsomal Stability (% remaining after 30 min.)” value [1] was 76%. For the same compound, the Ki (JAK-2) was 81 nM.
With `Cc1cc(Nc2cc(N3CCC3)nc(Sc3ccc(NC(=O)c4cccc(C(F)(F)F)c4F)cc3)n2)n[nH]1` [Compound I-13] the Ki (Aurora-2 (Aurora A)) was 0.35 nM, the Ki (Aurora-1 (Aurora B)) was 6 nM and the “Microsomal Stability (% remaining after 30 min.)” value [1] was 85%. The “Microsomal Stability (% remaining after 60 min.)” value [1] was 74% and the Ki (JAK-2) was 130 nM.
In the case of `Cc1cc(Nc2cc(N3CCC3)nc(Sc3ccc(NC(=O)c4cc(Cl)ccc4Cl)cc3)n2)n[nH]1` [Compound I-21], the Ki (Aurora-2 (Aurora A); [2]) is reported as 0.78 nM, the Ki (Aurora-1 (Aurora B); [3]) is reported as 6.5 nM and the “Microsomal Stability (% remaining after 30 min.)” value [1] is reported as 86%. For the same compound, the Ki (JAK-2) was 600 nM.
For `Cc1cc(Nc2cc(N3CCC3)nc(Sc3ccc(NC(=O)c4cccc(Cl)c4)cc3)n2)n[nH]1` [Compound I-12], the Ki (Aurora-2 (Aurora A)) was 1.4 nM, the Ki (Aurora-1 (Aurora B); [3]) was 19 nM and the “Microsomal Stability (% remaining after 30 min.)” value [1] was 94%. It also gave a Ki (JAK-2) of 46 nM.
For `Cc1cc(Nc2cc(N3CCC3)nc(Sc3ccc(NC(=O)c4cccc(Cl)c4F)cc3)n2)n[nH]1` [Compound I-15], the Ki (Aurora-2 (Aurora A)) was 0.76 nM, the Ki (Aurora-1 (Aurora B); [3]) was 7.5 nM and the “Microsomal Stability (% remaining after 30 min.)” value [1] was 73%. The “Microsomal Stability (% remaining after 60 min.)” value [1] was 84% and the Ki (JAK-2) was 46 nM.
In the case of `Cc1cc(Nc2cc(N3CCC3)nc(Sc3ccc(NC(=O)c4ccccc4Cl)cc3)n2)[nH]n1` [Compound I-1, N-{4-[4-Azetidin-1-yl-6-(5-methyl-2H-pyrazol-3-ylamino)-pyrimidin-2-ylsulfanyl]-phenyl}-2-chloro-benzamide], the Ki (Aurora-2 (Aurora A); [2]) is reported as 1 nM, the Ki (Aurora-1 (Aurora B); [3]) is reported as 7 nM and the “Microsomal Stability (% remaining after 30 min.)” value [1] is reported as 96%. The “Microsomal Stability (% remaining after 60 min.)” value [1] was 79% and the Ki (JAK-2) was 380 nM.
For `Cc1cc(Nc2cc(N3CCC3)nc(Sc3ccc(NC(=O)c4c(Cl)cccc4Cl)cc3)n2)n[nH]1` [Compound I-11], the Ki (Aurora-2 (Aurora A)) was 0.71 nM, the Ki (Aurora-1 (Aurora B); [3]) was 7 nM and the “Microsomal Stability (% remaining after 60 min.)” value [1] was 69%. It also gave a Ki (JAK-2) of 330 nM.
For `Cc1cc(Nc2cc(N3CCC3)nc(Sc3ccc(NC(=O)c4c(F)cccc4F)cc3)n2)[nH]n1` [Compound I-2, N-{4-[4-Azetidin-1-yl-6-(5-methyl-2H-pyrazol-3-ylamino)-pyrimidin-2-ylsulfanyl]-phenyl}-2,6-Difluoro-benzamide], the Ki (Aurora-2 (Aurora A); [2]) was 1.9 nM, the Ki (Aurora-1 (Aurora B); [3]) was 6.5 nM and the “Microsomal Stability (% remaining after 30 min.)” value [1] was 107%. For the same compound, the “Microsomal Stability (% remaining after 60 min.)” value [1] was 77% and the Ki (JAK-2) was 67 nM.
For `Cc1cc(Nc2cc(N3CCC3)nc(Sc3ccc(NC(=O)c4ccccc4C(F)F)cc3)n2)[nH]n1` [Compound I-19], the Ki (Aurora-2 (Aurora A); [2]) was 1.2 nM, the Ki (Aurora-1 (Aurora B); [3]) was 19 nM and the “Microsomal Stability (% remaining after 30 min.)” value [1] was 109%. For the same compound, the “Microsomal Stability (% remaining after 60 min.)” value [1] was 91% and the Ki (JAK-2) was 410 nM.
For `Cc1cc(Nc2cc(N3CCC3)nc(Sc3ccc(NC(=O)c4ccccc4C)cc3)n2)[nH]n1` [Compound I-5], the Ki (Aurora-2 (Aurora A); [2]) was 0.87 nM, the Ki (Aurora-1 (Aurora B); [3]) was 14 nM and the “Microsomal Stability (% remaining after 30 min.)” value [1] was 98%. The “Microsomal Stability (% remaining after 60 min.)” value [1] was 65% and the Ki (JAK-2) was 190 nM.
For `Cc1cc(Nc2cc(N3CCC3)nc(Sc3ccc(NC(=O)c4ccccc4F)cc3)n2)[nH]n1` [Compound I-3], the Ki (Aurora-2 (Aurora A); [2]) was 2.2 nM, the Ki (Aurora-1 (Aurora B); [3]) was 10 nM and the “Microsomal Stability (% remaining after 30 min.)” value [1] was 51%. For the same compound, the “Microsomal Stability (% remaining after 60 min.)” value [1] was 66% and the Ki (JAK-2) was 61 nM.
